We go through eleven compounds from ChEMBL document CHEMBL5244281, “Tackling multidrug-resistant Staphylococcus aureus by natural products and their analogues acting as NorA efflux pump inhibitors” (Bioorg Med Chem, 2023).

≈ marks a conversion by molar mass, not a printed value.

Test [1] concerns Staphylococcus aureus. Description: Antibacterial activity against Staphylococcus aureus SA10 assessed as bacterial growth inhibition incubated for 24 hrs by resazurin based microdilution assay. It counts as functional. On the technique in general: Resazurin is reduced to fluorescent resorufin, in cell work by metabolically active cells.
Test [2] deals with T1, Quinolone resistance protein NorA (Staphylococcus aureus) (UniProt P0A0J7).
T1 sequence (whole entry): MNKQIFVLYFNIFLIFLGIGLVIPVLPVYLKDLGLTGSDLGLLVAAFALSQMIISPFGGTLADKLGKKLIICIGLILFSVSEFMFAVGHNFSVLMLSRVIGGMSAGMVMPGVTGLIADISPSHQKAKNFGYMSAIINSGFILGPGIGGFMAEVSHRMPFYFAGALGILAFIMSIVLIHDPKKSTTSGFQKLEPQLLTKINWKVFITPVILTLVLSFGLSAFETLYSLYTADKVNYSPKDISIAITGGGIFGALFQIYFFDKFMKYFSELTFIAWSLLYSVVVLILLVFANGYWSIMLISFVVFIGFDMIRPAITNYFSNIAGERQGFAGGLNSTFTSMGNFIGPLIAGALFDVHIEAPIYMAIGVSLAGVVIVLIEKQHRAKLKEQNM
The test is described as follows: Potentiation of EtBr-induced inhibition of NorA efflux in Staphylococcus aureus 1199B overexpressing NorA assessed as reduction in EtBr MIC at 256 ug/ml incubated for 24 hrs by resazurin based assay (Rvb= 32 ug/ml). The conditions noted are these: dose 256.0 µg/ml.

Test [3] has as its system Staphylococcus aureus. Description: Antibacterial activity against norfloxacin resistant Staphylococcus aureus 1199B overexpressing NorA assessed as bacterial growth inhibition incubated for 24 hrs by resazurin based microdilution assay. It counts as functional.
In another test the test system is Candida albicans. Description: Antifungal activity against Candida albicans NEWP031 assessed as bacterial growth inhibition incubated for 24 hrs by resazurin based microdilution assay. It counts as functional.
In test [4] the test system is Escherichia coli. Description: Antibacterial activity against Escherichia coli ATCC […] assessed as bacterial growth inhibition incubated for 24 hrs by resazurin based microdilution assay. It counts as functional.
In test [5] the test system is Staphylococcus aureus. The test is described as follows: Antibacterial activity against Staphylococcus aureus 1199 assessed as bacterial growth inhibition incubated for 24 hrs by resazurin based microdilution assay. It counts as functional.
Test [6] relates to Staphylococcus aureus. The test is described as follows: Antibacterial activity against Staphylococcus aureus ATCC 25923 assessed as bacterial growth inhibition incubated for 24 hrs by resazurin based microdilution assay. In kind it is functional.
Test [7] concerns the target T1, Quinolone resistance protein NorA (Staphylococcus aureus). The settings on record: 1199B, dose 128.0 µg/ml, time 24.0 hrs.
For test [8], the system named is Staphylococcus aureus. The test is described as follows: Synergistic antimicrobial activity against Staphylococcus aureus 1199B overexpressing NorA efflux pump assessed as fractional inhibitory concentration index incubated for 24 hrs by checkerboard method. It counts as functional.
Test [9] concerns Staphylococcus aureus. The test is described as follows: Synergistic antimicrobial activity against Staphylococcus aureus 1199B overexpressing NorA efflux pump assessed as reduction in norfloxacin MIC incubated for 24 hrs by MTT colorimetric assay (Rvb= […]). In kind it is functional.
In test [10] the test system is Escherichia coli. Description: Potentiation of gentamicin-induced antibacterial activity against Escherichia coli 06 assessed as gentamicin MIC at 1/8 times of MIC (Rvb= 322 ug/ml). In kind it is functional.
Test [11] deals with T1, Quinolone resistance protein NorA (Staphylococcus aureus). The test is described as follows: Potentiation of EtBr-induced inhibition of NorA efflux pump in Staphylococcus aureus 1199B overexpressing NorA efflux pump assessed as reduction in EtBr MIC at 1/8 times of MIC by resazurin based assay (Rvb= 512 ug/ml).
Test [12] relates to Staphylococcus aureus. The test is described as follows: Antibacterial activity against norfloxacin resistant Staphylococcus aureus 1199 assessed as bacterial growth inhibition. It counts as functional.
In test [13] the test system is Staphylococcus aureus. The test is described as follows: Antibacterial activity against norfloxacin resistant Staphylococcus aureus 1199B overexpressing NorA assessed as bacterial growth inhibition. In kind it is functional.
For test [14], the system named is Staphylococcus aureus. The test is described as follows: Antibacterial activity against wild type Staphylococcus aureus 1199 assessed as bacterial growth inhibition incubated for 24 hrs by resazurin based microdilution assay. It counts as functional.
Test [15] has as its system Staphylococcus aureus. The test is described as follows: Antibacterial activity against Staphylococcus aureus 1199B expressing NorA efflux protein assessed as bacterial growth inhibition incubated for 24 hrs by resazurin based microdilution assay. In kind it is functional.
Test [16] addresses T1, Quinolone resistance protein NorA (Staphylococcus aureus). The test is described as follows: Inhibition of NorA efflux pump in Staphylococcus aureus 1199B overexpressing NorA efflux pump assessed as norfloxacin MIC at 1/8 times of MIC using norfloxacin as substrate incubated for 24 hrs by resazurin based assay (Rvb= 406.37 ug/ml).
For test [17] the target is unchanged. The test is described as follows: Inhibition of NorA efflux pump in Staphylococcus aureus 1199 assessed as norfloxacin MIC at 1/8 times of MIC using norfloxacin as substrate incubated for 24 hrs by resazurin based assay (Rvb= 32 ug/ml).
For test [18] the target is unchanged. Description: Inhibition of NorA efflux pump in Staphylococcus aureus 1199 assessed as EtBr MIC at 1/8 times of MIC using EtBr as substrate incubated for 24 hrs by resazurin based assay (Rvb= 256 ug/ml).
Test [19] has the same target. Description: Inhibition of NorA efflux pump in Staphylococcus aureus 1199B overexpressing NorA efflux pump assessed as EtBr MIC at 1/8 times of MIC using EtBr as substrate incubated for 24 hrs by resazurin based assay (Rvb= 256 ug/ml).
The test system of test [20] is Staphylococcus aureus. The test is described as follows: Antibacterial activity against wild type Staphylococcus aureus ATCC 25923 assessed as bacterial growth inhibition incubated for 24 hrs by resazurin based microdilution assay. In kind it is functional.
In test [21] the test system is Staphylococcus aureus. Description: Antibacterial activity against Staphylococcus aureus K2068 overexpressing mepA gene assessed as bacterial growth inhibition incubated for 24 hrs by resazurin based microdilution assay. It counts as functional.
Test [22] has as its system Staphylococcus aureus. Description: Antibacterial activity against Staphylococcus aureus RN4220 overexpressing […] efflux protein assessed as bacterial growth inhibition incubated for 24 hrs by resazurin based microdilution assay. It counts as functional.
Test [23] deals with Staphylococcus aureus. The test is described as follows: Antibacterial activity against Staphylococcus aureus 1199B overexpressing NorA efflux protein assessed as bacterial growth inhibition incubated for 24 hrs by resazurin based microdilution assay. In kind it is functional.
Test [24] deals with Staphylococcus aureus. Description: Antibacterial activity against Staphylococcus aureus K4414 overexpressing qacA/B gene assessed as bacterial growth inhibition incubated for 24 hrs by resazurin based microdilution assay. It counts as functional.
Test [25] relates to Staphylococcus aureus. The test is described as follows: Antibacterial activity against Staphylococcus aureus K4100 overexpressing qacC gene assessed as bacterial growth inhibition incubated for 24 hrs by resazurin based microdilution assay. In kind it is functional.
The target of test [26] is T1, Quinolone resistance protein NorA (Staphylococcus aureus). The conditions noted are these: 1199B.
In test [27] the test system is Staphylococcus aureus. The test is described as follows: Antibacterial activity against Staphylococcus aureus IS-58 overexpressing TetK efflux protein assessed as bacterial growth inhibition incubated for 24 hrs by resazurin based microdilution assay. It counts as functional.
Test [28] deals with T1, Quinolone resistance protein NorA (Staphylococcus aureus). The test is described as follows: Potentiation of ciprofloxacin-mediated inhibition of NorA efflux pump in Staphylococcus aureus 1199B overexpressing NorA efflux pump assessed as reduction in ciprofloxacin MIC (Rvb= […] ug/ml).

For `CC(C)CCCC(C)CCO` (stereo not given), the MIC was at least 1020 µg/mL with Staphylococcus aureus [1]; 16 µg/mL in test [2]; at least 1020 µg/mL with Staphylococcus aureus [3]; 2050 µg/mL (≈ 12900 µM) in the test with Candida albicans; 2050 µg/mL (≈ 12900 µM) in the test on Escherichia coli [4]; at least 1020 µg/mL in the test on Staphylococcus aureus [5]. The MIC with Staphylococcus aureus [6] is at least 1020 µg/mL; in test [7] it was 32 µg/mL (≈ 202 µM).
Consider `O=C(OC[C@]1(O)[C@H](OC(=O)c2ccccc2)C=C[C@@H](OC(=O)c2ccccc2)[C@@H]1O)c1ccccc1`, for which the “fractional inhibitory concentration index (FICI)” value in the test on Staphylococcus aureus [8] came to 0.52. The MIC with Staphylococcus aureus [9] stood at 32 µg/mL.
As to `C[C@H]1[C@H](C)CC[C@]2(C)CC[C@]3(C)C(=CC[C@@H]4[C@@]5(C)CC[C@H](O)C(C)(C)[C@@H]5CC[C@]43C)[C@H]12`, the MIC stood at 203 µg/mL in the test with Escherichia coli [10] and 406 µg/mL in test [11].
Regarding `CC1=CCC(C(C)C)CC1` (stereo not given), the MIC in the test with Staphylococcus aureus [12] and in the test with Staphylococcus aureus [13] was above 1020 µg/mL each time.
In the case of `CC(C)=CCC1=C(NCCO)C(=O)c2ccccc2C1=O`, the MIC with Staphylococcus aureus [14] is at least 1020 µg/mL; in the test on Staphylococcus aureus [15], at least 1020 µg/mL; in [16], 80 µg/mL; in test [17], 1 µg/mL; in [18], 16 µg/mL; in test [19], 32 µg/mL.
With `CC(C)=CCC1=C(NCCCO)C(=O)c2ccccc2C1=O`, the MIC is at least 1020 µg/mL in the test on Staphylococcus aureus [14]; at least 1020 µg/mL in the test on Staphylococcus aureus [15]; 102 µg/mL in test [16]; 4 µg/mL in test [17]; 32 µg/mL in test [18]; 64 µg/mL in [19].
Consider `CC(C)=CC1=C(NCCO)C(=O)c2ccccc2C1=O`, for which the MIC was at least 1020 µg/mL with Staphylococcus aureus [14]; at least 1020 µg/mL in the test on Staphylococcus aureus [15]; 50.8 µg/mL in test [16]; 2.51 µg/mL in [17]; 32 µg/mL in test [18]; 128 µg/mL in [19].
Take `C/C=C/c1cc(OC)c2c(c1)[C@H](C)[C@@H](c1ccc(OC)c(OC)c1)O2`: the “fractional inhibitory concentration index (FICI)” value with Staphylococcus aureus [8] amounted to 0.13. The MIC with Staphylococcus aureus [9] is 8 µg/mL.
Turning to `COc1ccc(/C=C/C(=O)c2cc(O)c(O)c(OC)c2)cc1OC`, the MIC in the test with Staphylococcus aureus [20], in the test with Staphylococcus aureus [21], with Staphylococcus aureus [22], in the test with Staphylococcus aureus [23], in the test with Staphylococcus aureus [24] and in the test on Staphylococcus aureus [25] was 100 µg/mL (≈ 303 µM) throughout. For the same compound, the MIC in [26] was found to be 16 µg/mL (≈ 48.4 µM); in the test on Staphylococcus aureus [27], 100 µg/mL (≈ 303 µM).
In the case of `C=CC[C@]12C=C(OC)C(=O)[C@H]([C@@H](c3ccc4c(c3)OCO4)[C@@H]1C)[C@@H]2OC(C)=O`, in the test with Staphylococcus aureus [8], the “fractional inhibitory concentration index (FICI)” value stood at 0.25. Further, in the test on Staphylococcus aureus [9], the MIC was found to be 16 µg/mL.
For the compound `CC(/C=C/C(=O)N1CCCC1)=C\c1ccc2c(c1)CCC(C)O2` (stereo not given), in [28], the MIC turned out to be 3.12 µg/mL.
